In article PMC12775434, “Ultra-large virtual screening unveils potent agonists of the neuromodulatory orphan receptor GPR139” (Nature Communications, 2025):
Where “and” joins values, the source holds several entries; their conditions need not be identical. Equal values may be shown once. Read-outs that look alike come from different tables or passages of the source.

Target: T1, GPR139 (Homo sapiens, UniProt Q6DWJ6)
T1 sequence (Q6DWJ6 1-353): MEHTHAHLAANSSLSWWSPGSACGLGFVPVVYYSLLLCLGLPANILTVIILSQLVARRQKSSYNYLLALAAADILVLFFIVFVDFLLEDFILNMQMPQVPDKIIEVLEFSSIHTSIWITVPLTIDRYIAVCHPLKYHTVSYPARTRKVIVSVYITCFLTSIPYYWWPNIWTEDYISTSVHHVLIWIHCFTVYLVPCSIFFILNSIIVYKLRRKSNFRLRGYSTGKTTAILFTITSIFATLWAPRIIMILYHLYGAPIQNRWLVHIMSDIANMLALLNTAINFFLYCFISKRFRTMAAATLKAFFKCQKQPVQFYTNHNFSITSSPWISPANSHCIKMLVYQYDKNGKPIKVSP
Assay: Ca2+ mobilization assay, agonist mode, stable GPR139-CHOk1 cell line
Assay type: cell-based
Details: for Emax: normalized to Lundbeck Cmp 1a
Method in brief: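 Agonist activity of compounds is assessed in stably transfected CHO-K1 cells using the calcium dye Fluo-4 at 37 °C in HEPES-buffered HBSS (pH 7.4). Efficacy is expressed relative to the reference agonist Lundbeck Cmp 1a, set as 100%.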

[1] = Supplementary Table 2, mean ± SEM, read-out: pEC50 Ca2+ (converted)
[2] = Supplementary Table 2, mean ± SEM, read-out: Emax (%) Ca2+

SMILES: Cc1cscc1-c1nc(CC(=O)N[C@H](C)c2ccccc2)no1 [1.1(R)]
- EC50 (Supplementary Table 7, enantiopure compounds, read-out: pEC50, Ca2+ mobilization (converted)): 316 nM
- Emax (Supplementary Table 7, read-out: Emax (%), Ca2+ mobilization): 112 ± 1%
- Ca2+ signal (% of Cmp 1a) (log [Compound] M -8.5, individual replicates): 12 % of Cmp 1a and 7 % of Cmp 1a and 3.33 % of Cmp 1a
- Ca2+ signal (% of Cmp 1a) (log [Compound] M -9.0, individual replicates): 9 % of Cmp 1a and 0.333 % of Cmp 1a and -1.33 % of Cmp 1a
- Ca2+ signal (% of Cmp 1a) (log [Compound] M -12.0, individual replicates): 0 % of Cmp 1a
- Ca2+ signal (% of Cmp 1a) (log [compound] M -4.5, individual replicates): 101 % of Cmp 1a and 112 % of Cmp 1a and 116 % of Cmp 1a
- Ca2+ signal (% of Cmp 1a) (log [compound] M -5.0, individual replicates): 100 % of Cmp 1a and 104 % of Cmp 1a and 97 % of Cmp 1a
- Ca2+ signal (% of Cmp 1a) (log [compound] M -5.5, individual replicates): 97 % of Cmp 1a and 88 % of Cmp 1a and 90 % of Cmp 1a
- Ca2+ signal (% of Cmp 1a) (log [compound] M -6.0, individual replicates): 74 % of Cmp 1a and 79 % of Cmp 1a and 77 % of Cmp 1a
- Ca2+ signal (% of Cmp 1a) (log [compound] M -6.5, individual replicates): 50 % of Cmp 1a and 51 % of Cmp 1a and 65 % of Cmp 1a
- Ca2+ signal (% of Cmp 1a) (log [compound] M -7.0, individual replicates): 32 % of Cmp 1a and 25 % of Cmp 1a and 37 % of Cmp 1a
- Ca2+ signal (% of Cmp 1a) (log [compound] M -7.5, individual replicates): 15 % of Cmp 1a and 13 % of Cmp 1a and 16 % of Cmp 1a
- Ca2+ signal (% of Cmp 1a) (log [compound] M -8.0, individual replicates): 9 % of Cmp 1a and 4.67 % of Cmp 1a and 8 % of Cmp 1a

SMILES: Cc1noc(C(C)NC(=O)Nc2cccc(-c3ccccc3)c2)n1 (stereo not shown) [Compound 3, CC(NC(=O)NC=1C=CC=C(C1)C=2C=CC=CC2)C3=NC(C)=NO3]
- Ca2+ signal (% of Cmp 1a) (0.1 µM, individual replicates (Supplementary Figure 3)): 5.3 % of Cmp 1a and 10.2 % of Cmp 1a
- Ca2+ signal (% of Cmp 1a) (1 µM, individual replicates (Supplementary Figure 3)): 18.7 % of Cmp 1a and 1.8 % of Cmp 1a
- Ca2+ signal (% of Cmp 1a) (10 µM, individual replicates (Supplementary Figure 3)): 46.3 % of Cmp 1a
- Ca2+ signal (% of Cmp 1a) (Agonist mode, individual replicates (Supplementary Figure 1)): 55 % of Cmp 1a and 56 % of Cmp 1a and 62 % of Cmp 1a
- EC50 [1]: 2510 nM
- Emax [2]: 70 ± 3%
- Ca2+ signal (% of Cmp 1a) (log [Compound] M -4.5, replicate experiments): 57 % of Cmp 1a and 72 % of Cmp 1a and 70 % of Cmp 1a
- Ca2+ signal (% of Cmp 1a) (log [Compound] M -5.0, replicate experiments): 55 % of Cmp 1a and 59 % of Cmp 1a and 65 % of Cmp 1a
- Ca2+ signal (% of Cmp 1a) (log [Compound] M -5.5, replicate experiments): 25 % of Cmp 1a and 54 % of Cmp 1a and 37 % of Cmp 1a
- Ca2+ signal (% of Cmp 1a) (log [Compound] M -6.0, replicate experiments): 11 % of Cmp 1a and 34 % of Cmp 1a and 21 % of Cmp 1a
- Ca2+ signal (% of Cmp 1a) (log [Compound] M -6.5, replicate experiments): -1.52 % of Cmp 1a and 4.42 % of Cmp 1a and 16 % of Cmp 1a
- Ca2+ signal (% of Cmp 1a) (log [Compound] M -7.0, replicate experiments): -7 % of Cmp 1a and -0.413 % of Cmp 1a and 6 % of Cmp 1a
- Ca2+ signal (% of Cmp 1a) (log [Compound] M -7.5, replicate experiments): -4.33 % of Cmp 1a and 4 % of Cmp 1a and 8 % of Cmp 1a
- Ca2+ signal (% of Cmp 1a) (log [Compound] M -8.0, replicate experiments): -1.83 % of Cmp 1a and -3.24 % of Cmp 1a and 5 % of Cmp 1a
- Ca2+ signal (% of Cmp 1a) (log [Compound] M -8.5, replicate experiments): -10 % of Cmp 1a and -2 % of Cmp 1a and 4.52 % of Cmp 1a
- Ca2+ signal (% of Cmp 1a) (log [Compound] M -9.0, replicate experiments): 0.621 % of Cmp 1a and -0.857 % of Cmp 1a and 2.53 % of Cmp 1a
- Ca2+ signal (% of Cmp 1a) (primary screen, 10 µM compound, agonist mode, three columns = independent experiments): 55 % of Cmp 1a and 56 % of Cmp 1a and 62 % of Cmp 1a

SMILES: COc1cc(-c2nc(CC(=O)NC(C)c3ccccc3)no2)ccn1 (stereo not shown) [Compound 1.7, COC1=NC=CC(C2=NC(CC(NC(C3=CC=CC=C3)C)=O)=NO2)=C1]
- Ca2+ signal (% of Cmp 1a) (Agonist mode, individual replicates (Supplementary Figure 4)): 105 % of Cmp 1a and 108 % of Cmp 1a and 111 % of Cmp 1a
- EC50 [1]: 200 nM
- Emax [2]: 113 ± 9%
- Ca2+ signal (% of Cmp 1a) (log [Compound] M = -4.5, individual replicate columns): 109 % of Cmp 1a and 102 % of Cmp 1a and 120 % of Cmp 1a
- Ca2+ signal (% of Cmp 1a) (log [Compound] M = -5.0, individual replicate columns): 102 % of Cmp 1a and 110 % of Cmp 1a and 134 % of Cmp 1a
- Ca2+ signal (% of Cmp 1a) (log [Compound] M = -5.5, individual replicate columns): 95 % of Cmp 1a and 141 % of Cmp 1a and 154 % of Cmp 1a
- Ca2+ signal (% of Cmp 1a) (log [Compound] M = -6.0, individual replicate columns): 70 % of Cmp 1a and 89 % of Cmp 1a and 113 % of Cmp 1a
- Ca2+ signal (% of Cmp 1a) (log [Compound] M = -6.5, individual replicate columns): 61 % of Cmp 1a and 84 % of Cmp 1a and 68 % of Cmp 1a
- Ca2+ signal (% of Cmp 1a) (log [Compound] M = -7.0, individual replicate columns): 40 % of Cmp 1a and 48 % of Cmp 1a and 53 % of Cmp 1a
- Ca2+ signal (% of Cmp 1a) (log [Compound] M = -7.5, individual replicate columns): 13 % of Cmp 1a and 22 % of Cmp 1a and 34 % of Cmp 1a
- Ca2+ signal (% of Cmp 1a) (log [Compound] M = -8.0, individual replicate columns): 1.88 % of Cmp 1a and 6 % of Cmp 1a and 10 % of Cmp 1a
- Ca2+ signal (% of Cmp 1a) (log [Compound] M = -8.5, individual replicate columns): 4.28 % of Cmp 1a and 11 % of Cmp 1a and 7 % of Cmp 1a
- Ca2+ signal (% of Cmp 1a) (log [Compound] M = -9.0, individual replicate columns): -0.46 % of Cmp 1a and 10 % of Cmp 1a and 7 % of Cmp 1a
